Patent publication US20240174679A1, “HETEROAROYL AMIDES AS LRRK2 INHIBITORS, PHARMACEUTICAL COMPOSITIONS, AND USES THEREOF” (MERCK SHARP & DOHME LLC, priority 2021, published 2024)

Target: GST tagged truncated human mutant G2019S LRRK2 (Homo sapiens (Human), UniProt Q5S007, G2019S)
Assay: LRRK2 Km ATP LanthaScreen Assay
Format: biochemical
Conditions: 134 μM ATP (Km ATP), LRRKtide substrate, negative log of mean IC50 (molar)
Experimental: Unless otherwise noted, all reactions are magnetically stirred. Unless otherwise noted, when diethyl ether is used in the experiments described below, it is Fisher ACS certified material and is stabilized with BHT. Unless otherwise noted, “concentrated” and/or “solvent removed under reduced pressure” means evaporating the solvent from a solution or mixture using a rotary evaporator or vacuum pump. Unless otherwise noted, flash chromatography is carried out on a Teledyne Isco (Lincoln, NE), Analogix (Burlington, WI), or Biotage (Stockholm, SWE) automated chromatography system using a commercially available cartridge as the column. Columns may be purchased from Teledyne Isco, Analogix, Biotage, Varian (Palo Alto, CA), or Supelco (Bellefonte, PA) and are usually filled with silica gel as the stationary phase. Reversed phase preparative HPLC conditions, where used, can be found at the end of each experimental section. Aqueous solutions were concentrated on a Genevac (Ipswich, ENG) or by freeze-drying/lyophilization. Unless otherwise noted, all LRRK2 pIC50 data presented in tables refers to the LRRK2 G2019S Km ATP LanthaScreen™ assay (Life Technologies Corp., Carlsbad, CA) that is described in the Biological Assay section.
Biological Assay: LRRK2 Km ATP LanthaScreen™ Assay
Compound potency against LRRK2 kinase activity was determined using LanthaScreen™ technology from Life Technologies Corporation (Carlsbad, CA) using a GST20 tagged truncated human mutant G2019S LRRK2 in the presence of the fluorescein-labeled peptide substrate LRRKtide® (LRRK2 phosphorylated ezrin/radixin/moesin (ERM)), also from Life Technologies. The data presented for the Km ATP LanthaScreen™ Assay represents mean IC50 values based on several test results and may have reasonable deviations depending on the specific conditions and reagents used. Km is the Michaelis constant of an enzyme and is defined as the concentration of native substrate (ATP for a kinase) which permits the enzyme to achieve half Vmax (Vmax=rate of reaction when the enzyme is saturated with substrate). IC50 (half-maximal inhibitory concentration) represents the concentration of inhibitor required to inhibit LRRK2 kinase activity by 50%. Assays were performed in the presence of 134 μM ATP (Km ATP). Upon completion, the assay was stopped, and phosphorylated substrate detected with a terbium (Tb)-labeled anti-pERM antibody (cat. no. PV4898). The compound dose response was prepared by diluting a 10 mM stock of compound to a maximum concentration of 9.99 μM in 100% DMSO, followed by custom fold serial dilution in DMSO nine times. 20 nL of each dilution was spotted via a Labcyte Echo onto a 384-well black-sided plate (Corning 3575) followed by 15 μL of a 1.25 nM enzyme solution in 1× assay buffer (50 mM Tris pH 8.5, 10 mM MgCl2, 0.01% Brij-35, 1 mM EGTA, 2 mM dithiothreitol, 0.05 mM sodium orthovanadate). Following a 15-min incubation period at rt, the kinase reaction was started with the addition of 5 μL of 400 nM fluorescein-labeled LRRKtide® (LRRK2 phosphorylated ezrin/radixin/moesin (ERM)) peptide substrate and 134 μM ATP solution in 1× assay buffer. The reaction was allowed to progress at ambient temperature for 90 min. The reaction was then stopped by the addition of 20 μL of TR-FRET Dilution Buffer (Life Technologies, Carlsbad, CA) containing 2 nM Tb-labeled anti-phospho LRRKtide® (LRRK2 phosphorylated ezrin/radixin/moesin (ERM)) antibody and 10 mM EDTA (Life Technologies, Carlsbad, CA). After an incubation period of 1 h at rt, the plate was read on an EnVision® multimode plate reader (Perkin Elmer, Waltham, MA) with an excitation wavelength of 337 nm (Laser) and a reading emission at both 520 and 495 nm. Compound IC50 values were interpolated from nonlinear regression best-fits of the log of the final compound concentration, plotted as a function of the 520/495-nm emission ratio using activity base “Abase”). Abase uses a 4 parameter (4P) logistic fit based on the Levenberg-Marquardt algorithm. […]

GST tagged truncated human mutant G2019S LRRK2, sequence (Q5S007 970-2527 G2019S): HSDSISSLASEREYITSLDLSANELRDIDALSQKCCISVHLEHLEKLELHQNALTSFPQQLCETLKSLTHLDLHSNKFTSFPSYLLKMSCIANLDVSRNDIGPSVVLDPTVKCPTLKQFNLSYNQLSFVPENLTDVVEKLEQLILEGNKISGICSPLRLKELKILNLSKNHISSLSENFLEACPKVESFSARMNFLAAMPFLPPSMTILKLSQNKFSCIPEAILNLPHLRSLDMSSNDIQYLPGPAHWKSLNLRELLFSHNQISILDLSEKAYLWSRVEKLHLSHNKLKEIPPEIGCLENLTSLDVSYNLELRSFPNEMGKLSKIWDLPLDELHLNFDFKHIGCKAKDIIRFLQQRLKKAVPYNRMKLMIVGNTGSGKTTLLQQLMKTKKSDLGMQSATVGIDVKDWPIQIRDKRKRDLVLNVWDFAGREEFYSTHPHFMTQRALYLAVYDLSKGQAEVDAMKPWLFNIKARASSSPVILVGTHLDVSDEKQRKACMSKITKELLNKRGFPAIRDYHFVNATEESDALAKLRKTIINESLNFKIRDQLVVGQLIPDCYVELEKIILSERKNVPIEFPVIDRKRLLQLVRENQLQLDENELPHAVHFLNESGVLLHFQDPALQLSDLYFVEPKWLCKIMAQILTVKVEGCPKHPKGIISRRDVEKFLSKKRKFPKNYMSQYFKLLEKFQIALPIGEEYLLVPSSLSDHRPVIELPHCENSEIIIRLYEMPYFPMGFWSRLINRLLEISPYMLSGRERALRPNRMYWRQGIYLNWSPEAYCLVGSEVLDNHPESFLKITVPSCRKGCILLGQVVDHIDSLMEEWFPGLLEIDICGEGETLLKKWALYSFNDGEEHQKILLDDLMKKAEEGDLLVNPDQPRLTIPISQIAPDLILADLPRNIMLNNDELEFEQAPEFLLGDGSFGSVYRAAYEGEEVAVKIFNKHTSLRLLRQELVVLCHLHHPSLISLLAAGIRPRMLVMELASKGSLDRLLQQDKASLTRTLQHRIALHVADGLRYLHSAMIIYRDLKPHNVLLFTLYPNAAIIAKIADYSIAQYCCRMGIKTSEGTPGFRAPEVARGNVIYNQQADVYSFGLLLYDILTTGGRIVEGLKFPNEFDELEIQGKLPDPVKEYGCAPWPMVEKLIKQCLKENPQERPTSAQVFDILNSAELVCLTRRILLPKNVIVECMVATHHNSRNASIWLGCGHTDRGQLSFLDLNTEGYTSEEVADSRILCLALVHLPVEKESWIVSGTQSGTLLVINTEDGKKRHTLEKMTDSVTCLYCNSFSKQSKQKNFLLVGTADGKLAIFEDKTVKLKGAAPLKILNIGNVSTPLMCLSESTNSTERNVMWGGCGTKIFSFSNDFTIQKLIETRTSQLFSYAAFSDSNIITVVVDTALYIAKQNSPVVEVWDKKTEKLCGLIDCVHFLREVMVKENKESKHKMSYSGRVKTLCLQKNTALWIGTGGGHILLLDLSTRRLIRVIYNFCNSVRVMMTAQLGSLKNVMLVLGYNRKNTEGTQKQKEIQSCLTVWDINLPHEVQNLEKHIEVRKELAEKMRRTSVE

| SMILES | LRRK2 pIC50 |
| --- | --- |
| O=C(Nc1cnn(C2CC2)c1)c1cccc(-c2cnn(CC(F)(F)F)c2)n1 [Example 4-1, N-(1-Cyclopropyl-1H-pyrazol-4-yl)-6-(1-(2,2,2-trifluoroethyl)-1H-pyrazol-4-yl)picolinamide] | 7.98 |
| Cc1nc(C(=O)Nc2cnn(C3CCC3)c2)ccc1C#N [Example 4-2, 5-cyano-N-(1-cyclobutyl-1H-pyrazol-4-yl)-6-methylpyridine-2-carboxamide] | 5.07 |
| CC(C)Nc1nc(C(=O)Nc2cnn(C3CCC3)c2)cs1 [Example 4-3, N-(1-cyclobutyl-1H-pyrazol-4-yl)-2-[(1-methylethyl)amino]-1,3-thiazole-4-carboxamide] | 6.19 |
| O=C(Nc1cnn(C2CCC2)c1)c1coc(-c2ccccc2)n1 [Example 4-4, N-(1-cyclobutyl-1H-pyrazol-4-yl)-2-phenyl-1,3-oxazole-4-carboxamide] | 5.68 |
| CSc1nc(C(=O)Nc2cnn(C3CCC3)c2)cs1 [Example 4-5, N-(1-cyclobutyl-1H-pyrazol-4-yl)-2-(methylsulfanyl)-1,3-thiazole-4-carboxamide] | 5.82 |
| CC(C)Oc1cccc(C(=O)Nc2cnn(C3CCC3)c2)n1 [Example 4-6, N-(1-cyclobutyl-1H-pyrazol-4-yl)-6-(1-methylethoxy) pyridine-2-carboxamide] | 7.10 |
| O=C(Nc1cnn(C2CCC2)c1)c1ccn(-c2ccccc2)n1 [Example 4-7, N-(1-cyclobutyl-1H-pyrazol-4-yl)-1-phenyl-1H-pyrazole-3-carboxamide] | 5.56 |
| CC(=O)Nc1cccc(C(=O)Nc2cnn(C3CCC3)c2)n1 [Example 4-8, 6-(acetylamino)-N-(1-cyclobutyl-1H-pyrazol-4-yl)pyridine-2-carboxamide] | 6.33 |
| O=C(Nc1cnn(C2CCC2)c1)c1csc(-c2ccccc2)n1 [Example 4-9, N-(1-cyclobutyl-1H-pyrazol-4-yl)-2-phenyl-1,3-thiazole-4-carboxamide] | 6.70 |
| COc1cccc(C(=O)Nc2cnn(C3CCC3)c2)n1 [Example 4-10, N-(1-cyclobutyl-1H-pyrazol-4-yl)-6-methoxypyridine-2-carboxamide] | 5.35 |
| O=C(Nc1cnn(C2CCC2)c1)c1ccn(-c2ncccn2)n1 [Example 4-11, N-(1-cyclobutyl-1H-pyrazol-4-yl)-1-pyrimidin-2-yl-1H-pyrazole-3-carboxamide] | 5.71 |
| CC(=O)Nc1nc(C(=O)Nc2cnn(C3CCC3)c2)cs1 [Example 4-12, 2-(acetylamino)-N-(1-cyclobutyl-1H-pyrazol-4-yl)-1,3-thiazole-4-carboxamide] | 6.18 |
| O=C(Nc1cnn(C2CCC2)c1)c1cccc(-n2cccn2)n1 [Example 4-13, N-(1-cyclobutyl-1H-pyrazol-4-yl)-6-(1H-pyrazol-1-yl)pyridine-2-carboxamide] | 6.76 |
| O=C(Nc1cnn(C2CCC2)c1)c1csc(Nc2ccccc2)n1 [Example 4-14, N-(1-cyclobutyl-1H-pyrazol-4-yl)-2-(phenylamino)-1,3-thiazole-4-carboxamide] | 6.12 |
| Cn1cc(NC(=O)c2csc(-c3cn[nH]c3)n2)cn1 [Example 4-15, N-(1-methyl-1H-pyrazol-4-yl)-2-(1H-pyrazol-4-yl)thiazole-4-carboxamide] | 7.28 |
| O=C(Nc1cnn(C2CCC2)c1)c1cccc(N2CCCC2)n1 [Example 4-16, N-(1-cyclobutyl-1H-pyrazol-4-yl)-6-(pyrrolidin-1-yl)picolinamide] | 6.04 |

| SMILES | LRRK2 pIC50 |
| --- | --- |
| O=C(Nc1cnn(C2CCC2)c1)c1cccc(-n2ccnc2)n1 [Example 4-17, N-(1-cyclobutyl-1H-pyrazol-4-yl)-6-(1H-imidazol-1-yl)picolinamide] | 5.91 |
| O=C(Nc1cnn(C2CCC2)c1)c1cccc(N2CCCCC2)n1 [Example 4-18, N-(1-cyclobutyl-1H-pyrazol-4-yl)-6-(piperidin-1-yl)picolinamide] | 5.81 |
| O=C(Nc1cnn(CC2(F)COC2)c1)c1csc(-c2cn[nH]c2)n1 [Example 5-1, N-(1-((3-Fluorooxetan-3-yl)methyl)-1H-pyrazol-4-yl)-2-(1H-pyrazol-4-yl)thiazole-4-carboxamide] | 7.50 |
| Cn1cc(NC(=O)c2csc(-c3cn[nH]c3)n2)c(CO)n1 [Example 6-1, N-(3-(Hydroxymethyl)-1-methyl-1H-pyrazol-4-yl)-2-(1H-pyrazol-4-yl)thiazole-4-carboxamide] | 7.47 |
| O=C(Nc1cnn(CC2CCC2)c1)c1csc(-c2cn[nH]c2)n1 [Example 7-1, N-(1-(Cyclobutylmethyl)-1H-pyrazol-4-yl)-2-(1H-pyrazol-4-yl)thiazole-4-carboxamide] | 7.76 |
| O=C(Nc1cn(CC(F)F)nc1C(F)F)c1csc(-c2cn[nH]c2)n1 [Example 7-2, N-[1-(2,2-difluoroethyl)-3-(difluoromethyl)-1H-pyrazol-4-yl]-2-(1H-pyrazol-4-yl)-1,3-thiazole-4-carboxamide] | 7.58 |
| COCCn1cc(NC(=O)c2csc(-c3cn[nH]c3)n2)c(C(F)F)n1 [Example 7-3, N-[3-(difluoromethyl)-1-(2-methoxyethyl)-1H-pyrazol-4-yl]-2-(1H-pyrazol-4-yl)-1,3-thiazole-4-carboxamide] | 7.27 |
| O=C(Nc1cnn(CC2CCNCC2)c1)c1csc(-c2cn[nH]c2)n1 [Example 7-4, N-{1-[(piperidin-4-yl)methyl]-1H-pyrazol-4-yl}-2-(1H-pyrazol-4-yl)-1,3-thiazole-4-carboxamide] | 6.79 |
| O=C(Nc1cn(CC2CCCCO2)nc1C(F)F)c1csc(-c2cn[nH]c2)n1 (stereo not shown) [Example 7-5, N-[3-(difluoromethyl)-1-(tetrahydro-2H-pyran-2-ylmethyl)-1H-pyrazol-4-yl]-2-(1H-pyrazol-4-yl)-1,3-thiazole-4-carboxamide] | 7.32 |
| CN(C)CCCn1cc(NC(=O)c2csc(-c3cn[nH]c3)n2)cn1 [Example 7-6, N-{1-[3-(dimethylamino)propyl]-1H-pyrazol-4-yl}-2-(1H-pyrazol-4-yl)-1,3-thiazole-4-carboxamide] | 6.43 |
| O=C(Nc1cn(CC2CCOCC2)nc1C(F)F)c1csc(-c2cn[nH]c2)n1 [Example 7-7, N-[3-(difluoromethyl)-1-(tetrahydro-2H-pyran-4-ylmethyl)-1H-pyrazol-4-yl]-2-(1H-pyrazol-4-yl)-1,3-thiazole-4-carboxamide] | 7.72 |
| O=C(Nc1cnn(CC2CCC(F)(F)CC2)c1)c1csc(-c2cn[nH]c2)n1 [Example 7-8, N-{1-[(4,4-difluorocyclohexyl)methyl]-1H-pyrazol-4-yl}-2-(1H-pyrazol-4-yl)-1,3-thiazole-4-carboxamide] | 7.35 |
| O=C(Nc1cn(CCF)nc1C(F)F)c1csc(-c2cn[nH]c2)n1 [Example 7-9, N-[3-(difluoromethyl)-1-(2-fluoroethyl)-1H-pyrazol-4-yl]-2-(1H-pyrazol-4-yl)-1,3-thiazole-4-carboxamide] | 7.75 |
| O=C(Nc1cnn(C2CCOCC2)c1)c1csc(-c2cn[nH]c2)n1 [Example 7-10, 2-(1H-pyrazol-4-yl)-N-[1-(tetrahydro-2H-pyran-4-yl)-1H-pyrazol-4-yl]-1,3-thiazole-4-carboxamide] | 7.37 |
| O=C(Nc1cn(CC2CCC2)nc1C(F)F)c1csc(-c2cn[nH]c2)n1 [Example 7-11, N-[1-(cyclobutylmethyl)-3-(difluoromethyl)-1H-pyrazol-4-yl]-2-(1H-pyrazol-4-yl)-1,3-thiazole-4-carboxamide] | 7.55 |
